{"source": "patent US9775831B2", "about": "“Combinations comprising biphenyl derivatives for use in the treatment of HCV” (BRISTOL-MYERS SQUIBB COMPANY, priority 2013, dated 2017)", "key": {"[1]": {"test_system": "genotype-1a variant with glutamine 30 changed to glutamate in the NS5A protein", "test": "HCV replicon cell-based assay, NS5A synergy with BMS-790052", "conditions": "genotype 1a Q→E variant; test compound titrated in combination with NS5A-targeting compound (BMS-790052 fixed at 200 nM)", "excerpt": "The NS5A synergistic inhibitory effect of test compounds can be determined using various amounts of an NS5A-targeting compound with titration of a second compound of interest. […] In one embodiment, the HCV genotype strain can be genotype 1a containing a change at amino acid 30 of the NS5A protein consisting of glutamine to glutamate. The test compound can be chosen from compounds listed above or from others present in the literature."}, "[2]": {"test_system": "genotype-1a variant with glutamine 30 changed to glutamate in the NS5A protein", "conditions": "cited from earlier work"}, "[3]": {"conditions": "genotype-1a Q30E NS5A variant replicon, compound alone, read-out: EC50, titrated singly"}}, "note": "Read-outs that look alike come from different tables or passages of the source."}
{"smiles": "O=C(C[C@@H](CCC(F)(F)F)c1ncc(-c2ccc(-c3ccc(-c4cnc([C@H](CCC(F)(F)F)CC(=O)NC5CCOCC5)[nH]4)cc3)cc2)[nH]1)NC1CCOCC1", "note": "[MD-61]", "values": [{"measurement": "Fold Synergistic (1a-QE)", "setting": "[1]", "value": "<10", "unit": "Fold"}]}
{"smiles": "CC(C)CNC(=O)C[C@H](c1ncc(-c2ccc(-c3ccc(-c4cnc([C@@H](CC(=O)NCC(C)C)C(C)C)[nH]4)cc3)cc2)[nH]1)C(C)C", "note": "[MD-35]", "values": [{"measurement": "Fold Synergistic (1a-QE)", "setting": "[1]", "value": ">10", "unit": "Fold"}]}
{"smiles": "COC(=O)N[C@H](C(=O)N1CCC[C@H]1c1nc(-c2ccc(-c3ccc(-c4c[nH]c([C@@H]5CCCN5C(=O)[C@@H](NC(=O)OC)C(C)C)n4)cc3)cc2)c[nH]1)C(C)C", "note": "[BMS-790052]", "values": [{"measurement": "reciprocal synergistic inhibitory effect for the combination", "setting": "[2]; BMS-790052 titrated with P-55 fixed at 200 nM, genotype-1a Q30E variant", "value": "~100", "unit": "fold"}, {"measurement": "EC50", "setting": "[2]; [3]", "value": "~200", "unit": "nM"}, {"measurement": "EC50", "setting": "[2]; genotype-1a Q30E variant, P-55 fixed at 200 nM, read-out: EC50 of BMS-790052 in the presence of a fixed amount of P-55", "value": "~2", "unit": "nM"}]}
{"smiles": "CCCN(CC1CC1)C(=O)C[C@H](c1ncc(-c2ccc(-c3ccc(-c4cnc([C@@H](CC(=O)N(CCC)CC5CC5)C(C)C)[nH]4)cc3)cc2)[nH]1)C(C)C", "note": "[MD-44]", "values": [{"measurement": "Fold Synergistic (1a-QE)", "setting": "[1]", "value": ">10", "unit": "Fold"}]}
{"smiles": "C[C@H](CC(=O)NCC1CC1)c1ncc(-c2ccc(-c3ccc(-c4cnc([C@H](C)CC(=O)NCC5CC5)[nH]4)cc3)cc2)[nH]1", "note": "[Example MD-38]", "values": [{"measurement": "Fold Synergistic (1a-QE)", "setting": "[1]", "value": ">100", "unit": "Fold"}]}
{"smiles": "CC(C)[C@H](CC(=O)N(Cc1ccccc1)C(C)C)c1ncc(-c2ccc(-c3ccc(-c4cnc([C@@H](CC(=O)N(Cc5ccccc5)C(C)C)C(C)C)[nH]4)cc3)cc2)[nH]1", "note": "[MD-52]", "values": [{"measurement": "Fold Synergistic (1a-QE)", "setting": "[1]", "value": ">100", "unit": "Fold"}]}
{"smiles": "CC(C)CC(=O)N[C@H](c1ncc(-c2ccc(-c3ccc(-c4cnc([C@@H](NC(=O)CC(C)C)C(C)C)[nH]4)cc3)cc2)[nH]1)C(C)C", "note": "[Example P-55]", "values": [{"measurement": "synergistic inhibitory effect for the combination", "setting": "[2]; P-55 titrated with BMS-790052 fixed at 200 nM, genotype-1a Q30E variant", "value": "> 100", "unit": "fold"}, {"measurement": "EC50", "setting": "[2]; [3]", "value": "> 200", "unit": "nM"}, {"measurement": "EC50", "setting": "[2]; genotype-1a Q30E variant, BMS-790052 fixed at 200 nM, read-out: EC50 of P-55 in the presence of a fixed amount of BMS-790052", "value": "~2", "unit": "nM"}]}
{"smiles": "CC(C)CNC(=O)[C@@H]1OCO[C@H]1c1ncc(-c2ccc(-c3ccc(-c4cnc([C@@H]5OCO[C@H]5C(=O)NCC(C)C)[nH]4)cc3)cc2)[nH]1", "note": "[MD-14]", "values": [{"measurement": "Fold Synergistic (1a-QE)", "setting": "[1]", "value": "<10", "unit": "Fold"}]}
{"smiles": "CC(C)[C@H](CC(=O)N1CCN(C)C(=O)C1)c1ncc(-c2ccc(-c3ccc(-c4cnc([C@@H](CC(=O)N5CCN(C)C(=O)C5)C(C)C)[nH]4)cc3)cc2)[nH]1", "note": "[MD-53]", "values": [{"measurement": "Fold Synergistic (1a-QE)", "setting": "[1]", "value": "<10", "unit": "Fold"}]}
{"smiles": "COC(=O)NN(C(=O)[C@@H]1OC(C)(C)O[C@H]1c1ncc(-c2ccc(-c3ccc(-c4cnc([C@@H]5OC(C)(C)O[C@H]5C(=O)N(NC(=O)OC)C(C)C)[nH]4)cc3)cc2)[nH]1)C(C)C", "note": "[MD-8]", "values": [{"measurement": "Fold Synergistic (1a-QE)", "setting": "[1]", "value": "<10", "unit": "Fold"}]}
{"smiles": "CC(C)[C@H](CC(=O)NCC12CC3CC(CC(C3)C1)C2)c1ncc(-c2ccc(-c3ccc(-c4cnc([C@@H](CC(=O)NCC56CC7CC(CC(C7)C5)C6)C(C)C)[nH]4)cc3)cc2)[nH]1", "note": "[MD-22]", "values": [{"measurement": "Fold Synergistic (1a-QE)", "setting": "[1]", "value": ">100", "unit": "Fold"}]}
{"smiles": "CC(C)(C)CNC(=O)C[C@@H](CCC(F)(F)F)c1ncc(-c2ccc(-c3ccc(-c4cnc([C@H](CCC(F)(F)F)CC(=O)NCC(C)(C)C)[nH]4)cc3)cc2)[nH]1", "note": "[Example MD-55]", "values": [{"measurement": "Fold Synergistic (1a-QE)", "setting": "[1]", "value": "<10", "unit": "Fold"}]}
{"smiles": "CC(C)[C@H](CC(=O)NCC(C)(C)C(N)=O)c1ncc(-c2ccc(-c3ccc(-c4cnc([C@@H](CC(=O)NCC(C)(C)C(N)=O)C(C)C)[nH]4)cc3)cc2)[nH]1", "note": "[MD-51]", "values": [{"measurement": "Fold Synergistic (1a-QE)", "setting": "[1]", "value": ">10", "unit": "Fold"}]}
{"smiles": "CC(C)CNC(=O)C[C@@H](CCC(F)(F)F)c1ncc(-c2ccc(-c3ccc(-c4cnc([C@H](CCC(F)(F)F)CC(=O)O)[nH]4)cc3)cc2)[nH]1", "note": "[Example MD-4]", "values": [{"measurement": "Fold Synergistic (1a-QE)", "setting": "[1]", "value": "<10", "unit": "Fold"}]}
{"smiles": "CC1(C)O[C@@H](C(N)=O)[C@H](c2ncc(-c3ccc(-c4ccc(-c5cnc([C@@H]6OC(C)(C)O[C@H]6C(N)=O)[nH]5)cc4)cc3)[nH]2)O1", "note": "[Example MD-9]", "values": [{"measurement": "Fold Synergistic (1a-QE)", "setting": "[1]", "value": "<10", "unit": "Fold"}]}
{"smiles": "CC(C)[C@H](CC(=O)NCC(C)(C)C)c1ncc(-c2ccc(-c3ccc(-c4cnc([C@@H](CC(=O)NCC(C)(C)C)C(C)C)[nH]4)cc3)cc2)[nH]1", "note": "[Example MD-18]", "values": [{"measurement": "Fold Synergistic (1a-QE)", "setting": "[1]", "value": ">10", "unit": "Fold"}]}
{"smiles": "CCO[C@H](CC(=O)NCC(C)C)C(=O)N[C@H](c1ncc(-c2ccc(-c3ccc(-c4cnc([C@@H](NC(=O)[C@@H](CC(=O)NCC(C)C)OCC)C(C)(C)C)[nH]4)cc3)cc2)[nH]1)C(C)(C)C", "note": "[MD-34]", "values": [{"measurement": "Fold Synergistic (1a-QE)", "setting": "[1]", "value": ">100", "unit": "Fold"}]}
{"smiles": "CC(C)[C@H](CC(=O)NCC(C)(C)CO)c1ncc(-c2ccc(-c3ccc(-c4cnc([C@@H](CC(=O)NCC(C)(C)CO)C(C)C)[nH]4)cc3)cc2)[nH]1", "note": "[MD-42]", "values": [{"measurement": "Fold Synergistic (1a-QE)", "setting": "[1]", "value": ">10", "unit": "Fold"}]}
